Data taken from patent publication US20060166996A1, “Phthalazine derivatives as phosphodiesterase 4 inhibitors” (Zambon Group S.P.A., priority 2002, published 2006).
Like-named read-outs stand apart in the source and are kept apart here.

What was measured:
PDE 5 = PDE 5 (Homo sapiens, UniProt O76074); test: PDE 5 enzyme inhibition (SPA); type: biochemical, healthy volunteers; details: PDE 5 from platelet rich plasma; 3H-cGMP; read-out: PDE 3-5 IC 50 (nM): PDE 5
Protocol: (§1) PDE 3 and PDE 5 enzymes were purified from platelet rich plasma (PRP) obtained from healthy volunteers.
(§2) PDE 3 and PDE 5 enzymes were purified according to Simpson A. W. M. et al. (Biochem. Pharmacol. 1988, 37, 2315-2320) partially modified for the FPLC technique (Fast Protein Liquid Chromatography).
(§3) The PRP was diluted 1:2 in saline solution and centrifuged at 2000×g for 15 minutes at room temperature.
(§4) The pellet was suspended in 10 ml of lysis solution (155 mM NH4Cl, 10 mM KHCO3 and 0.1 mM Na2EDTA pH 7.4) and incubated for 10 minutes on ice-bath to remove erythrocyte contamination.
(§5) After centrifugation, platelets were suspended in 10 ml of 20 mM Bis-Tris, 2 mM EDTA, 5 mM β-mercaptoethanol, 50 mM sodium acetate, 2 mM benzamidine) and homogenised with a Polytron homogeniser on ice-bath.
(§6) The homogenate was centrifuged and the supernatant applied to a UNO Q12 column connected to a Biologic Chromatography system (FPLC, BIO RAD).
(§7) PDE 3 and PDE 5 enzymes were eluted with a linear 0.05-1M sodium acetate gradient and the elution fractions were collected for PDE enzymes activity assay.
(§8) Fractions containing PDE activities were pooled, dialysed overnight against distilled water and concentrated 10 times by an Amicon filtration system (using YM10 membrane filter). Ethylene glycol was added to a final concentration of 30% v/v and the solution stored at −20° C.
(§9) Enzymatic activity was stable for several weeks under these conditions.
(§10) Enzymes activity assay were performed using Scintillation Proximity Assay (SPA) Amersham kit consisting of tracer ^3H-cAMP for PDE3 or ^3H-cGMP for PDE5, PDE assay buffer (10×solution: 500 mM TRIS/HCl pH 7.5, 83 mM MgCl2 and 17 mM EGTA) and Yttrium SPA PDE beads (containing 18 mM zinc sulphate).
(§11) The radioactivity of the beads was measured using a scintillation counter (Packard model MINAXI β TRI-CARB 4000 SERIES).

PDE 4 enzyme = molecular target: T1, PDE 4 enzyme; test: PDE 4 enzyme inhibition (SPA); type: biochemical; details: PDE 4 isolated from U937 cell line; SPA with 3H-cAMP
T1 construct: % at 10^−7; other: at 10^−7; PDE 4 from U937 cell line; other: PDE 4 isolated from U937 cell line; SPA with 3H-cAMP
Protocol: a) PDE 4 Enzyme Purification
PDE 4 enzyme was isolated from U937 cell line according to the method of Nielson et al. (J. Allergy Clin. Immunol. 1990, vol. 86, pages 801-807) partially modified for the FPLC technique (Fast Protein Liquid Chromatography).
U-937cell line (Istituto Zooprofilattico Sperimentale, Brescia, Italy) was maintained in RPMI 1640, with 10% foetal calf serum and 2 mM glutamine, at a cell density between 1×10^6 and 8×10^6 cells per ml in an incubator at 37° C. with 5% CO2.
U937 suspension was homogenised in a buffer containing 10 mM TRIS (tri-(hydroxymethyl)-aminomethane), 5 mM MgCl2, 4 mM EGTA (ethyleneglycol-bis-(β-aminoethylether)-N,N,N′N′-tetra-acetic acid), 5 mM […]-mercaptoethanol, 1 μM leupeptin, 1 μM pepstatin, 1% TRITON x-100, and 100 μM phenylmethyl sulfonyl fluoride (PMSF) at pH 7.8.
The homogenate was centrifuged and the supernatant was used for the purification of the PDE 4 enzyme; it was seeded on a column connected to a biologic chromatography system (FPLC, BIO RAD).
PDE 4 enzyme was eluted with a linear gradient, from 0.05 M to 1 M of sodium acetate, and elution fractions were collected for PDE4 activity assay.
The fractions containing PDE4 activity were collected and, after an overnight dialysis against water to remove sodium acetate, were concentrated to 30% volume with an Amicon filtration system (using YM10 membrane filter).
Ethylene glycol (30% v/v) was added and the sample was stored at −20° C. in a single aliquot until the use.
PDE 4 activity assay was performed using Scintillation Proximity Assay (SPA) Amershan kit consisting of tracer ^3H-cAMP, PDE assay buffer (10×solution: 500 mM TRIS/HCl pH 7.5, 83 mM MgCl2 and 17 mM EGTA) and Yttrium SPA PDE beads (containing 18 mM zinc sulphate).
as §11
The IC50 values were calculated from concentration-inhibition curves by non linear regression analysis using the program ORIGIN 3.5 (MICROCAL SOFTWARE INC.) and each fitting was the mean±SEM of 3 experiments using different PDE 4 preparations.

PDE 3 = PDE 3 (Homo sapiens, UniProt Q14432); test: PDE 3 enzyme inhibition (SPA); type: biochemical, healthy volunteers; details: PDE 3 from platelet rich plasma; 3H-cAMP; read-out: PDE 3-5 IC 50 (nM): PDE 3
Protocol: as §1, §2, §3, §4, §5, §6, §7, §8, §9, §10, §11

TNFα release = TNFα release in whole human blood (LPS, ELISA); type: cell-based
Protocol: The blood samples obtained from healthy volunteers were collected in heparinised tubes and diluted 1:5 with RPMI 1640 without serum addition.
The test was carried out in 96-well plates and samples containing 150 μl of diluted blood and 150 μl of RPMI 1640 with control vehicle or with different concentration of the compounds of the present invention were incubated at 37° C. in a 5% CO2 humidified atmosphere for 30 minutes.
The whole blood in the assay samples was diluted 1:10 (v/v).
The samples were stimulated with LPS (lipopolysaccharide from E. Coli: serotype B 0:55, Sigma) 0.25 μg/ml and incubated for 24 hours.
After centrifugation, the supernatants were collected for TNFα levels determination by a commercially available ELISA kit (Biosource).
The test objects were dissolved in DMSO at 10^−2 M and further diluted in RPMI 1640. […] Each compound was tested in duplicate at nine concentrations and the data obtained were further confirmed using blood samples from different donors.
The percent inhibition of TNFα production at each concentration was calculated and IC50 was determined using a 4-parameters logistic equation (Origin calculation program, Microcal Software Inc.)

[1] = h-WB (whole human blood), LPS stimulated, read-out: IC 50 (nM) h-WB
[2] = whole human blood diluted 1:10, LPS 0.25 μg/ml, 24 hours, read-out: IC 50 (nM) h-WB 1:10

Chain of PDE 3 (Q14432 674-1093 limits assumed): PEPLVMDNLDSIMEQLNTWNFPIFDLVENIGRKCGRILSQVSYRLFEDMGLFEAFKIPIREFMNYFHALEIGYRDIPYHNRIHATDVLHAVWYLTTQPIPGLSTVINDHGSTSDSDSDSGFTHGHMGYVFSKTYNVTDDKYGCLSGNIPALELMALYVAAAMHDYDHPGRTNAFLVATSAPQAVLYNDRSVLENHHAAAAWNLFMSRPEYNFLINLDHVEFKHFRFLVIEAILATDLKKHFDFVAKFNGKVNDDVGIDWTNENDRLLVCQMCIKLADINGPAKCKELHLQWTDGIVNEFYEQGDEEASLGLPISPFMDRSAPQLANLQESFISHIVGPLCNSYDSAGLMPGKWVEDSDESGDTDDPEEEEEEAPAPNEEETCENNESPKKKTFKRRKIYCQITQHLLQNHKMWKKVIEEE

IC50 (PDE 5)	IC50 (PDE 4 enzyme)	IC50 (PDE 3)	IC50 (TNFα release; [1])	IC50 (TNFα release; [2])	SMILES
> 10000 nM	0.037 µM	> 10000 nM	33000 nM	2470 nM	COc1ccc2c(Cc3c(Cl)cncc3Cl)nnc(-c3cccc(C(=O)O)c3)c2c1 [Compound 2, 3-[4-(3,5-dichloro-pyridin-4-ylmethyl)-7-methoxy-phthalazin-1-yl]-benzoic Acid]
> 10000 nM		> 10000 nM	14300 nM	1230 nM	O=C(O)c1cccc(-c2nnc(Cc3c(Cl)cncc3Cl)c3ccc(OC(F)F)cc23)c1 [Compound 8, 3-[4-(3,5-dichloro-pyridin-4-ylmethyl)-7-difluoromethoxy-phthalazin-1-yl]-benzoic Acid]
> 10000 nM	0.048 µM	> 10000 nM		18000 nM	COc1ccc2c(Cc3c(Cl)cncc3Cl)nnc(-c3sccc3C(=O)O)c2c1 [Compound 10, 2-[4-(3,5-dichloro-pyridin-4-ylmethyl)-7-methoxy-phthalazin-1-yl]-thiophene-3-carboxylic Acid]
